Data reported in patent publication US7981878B2, “Tumor treatment with gliotoxin derivatives” (priority 2005, dated 2011).

Tests used:
B-CLL cells = experiment: Apoptosis of B-CLL cells by FACS (Probidium iodide/annexinV); assay type: cell-based, human; details: for apoptosis: 0.2 μM gliotoxin, 4 hours
Procedure: (§1) FIG. 3: Gliotoxin is a potent Notch2 trans-activation inhibitor in B-CLL cells. (A) EMSA showing the inhibition of DNA-bound Notch2IC complexes in the presence of 0.2 μg Gliotoxin. B-CLL samples (n=10) were cultured in the presence of 1 ng/ml TPA with or without 0.2 μM Gliotoxin for 24 hours. Nuclear extracts were subjected to EMSA using a oligonucleotide probe spanning a well defined CBF1/NotchIC binding site derived from the CD23a promoter. (B). Corresponding FACS analysis (plus 10 additional B-CLL samples) showing the downregulation of the Notch2 target gene CD23 as well as the induction of apoptosis of Gliotoxin treated B-CLL samples. Columnes represent the percentage of CD19^+CD23^+ (grey bars) and apoptotic cells (black bars: including early apoptotic cells single positive for AnnexinV, and late apoptotic cells double positive for AnnexinV and probidium iodide), respectively.
(§2) FIG. 4: Gliotoxin induces apoptosis in unstimulated as well as in TPA-stimulated B-CLL cells within 4 hours. Normal PBMCs (peripheral blood mononuclear cells) from healthy donors show a markedly lower Notch2 activity. Although gliotoxin inhibits Notch2 also in normal, TPA-stimulated cells, the gliotoxin-caused apoptosis rate is markedly lower in normal cells as compared to B-CLL cells. Non-stimulated and TPA stimulated PBMC's from healthy donors (HD) are less sensitive to 0.2 μM Gliotoxin despite a basal Notch2 activity. PBMC's and CLL cells were incubated with 0.2 μM Gliotoxin with or without TPA for 4 hours and the Notch2 activity as well as the percentage of apoptotic cells were determined by EMSA and FACS analysis, respectively.
(§3) As drug screening model, a cell culture system was established which conserves the phenotype of freshly isolated B-CLL cells (3×10^6 B-CLL cells/ml RPMI medium+10% FCS, supplemented with 1 ng/ml of TPA). Notch2 activity in the cell nucleus is determined by means of EMSA (electrophoretic mobility shift assay) experiments, and the cell viability (Probidium iodide/annexinV) and CD23 expression (Notch2 target gene) is determined by means of FACS (flow cytometry) analyses, respectively.
B-CLL cells were cultured for 24 h in the presence of 0.2 μM/ml of gliotoxin. This treatment led to a dramatic loss of the transcriptional Notch2 activity, as shown in the following representative EMSA (FIG. 3).
(§4) After 4 hours of gliotoxin treatment, massive signs of the starting apoptosis (AnnexinV+) could already be recognized in B-CLL cells. This effect was increased by TPA (a phorbol ester which stimulates the activation of lymphocytes).

[1] = tested on: SNU398 (hepatocellular carcinoma); experiment: Cell count analysis SNU398; assay type: cell-based, human
Procedure: (§5) FIG. 8 a-d: Effects of gliotoxin on cell counts of various human tumour cell lines in vitro. Cell counts of a) hepatocellular carcinoma cell lines HepG2, Huh7, SNU398, Hep3b, HeLa (cervix) and the cholangiocarcinoma cell line NEC as well as b) the pancreatic cancer cell line Panc-1 and the melanoma cell lines d) MelJuso, Meljuso-Bcl-2 (+) and 607B after 72 h treatment with 200 nM gliotoxin; c-d) Cell count dose range experiments with c) pancreatic carcinoma cell lines Panc-1 and MiaPaCa as well as melanoma cell lines MelJuso, 518A2 and 607B using 25, 50 100 and 200 nM gliotoxin for 24 h. All data are given relative to control ±standard deviation.
(§6) Tumour cells were seeded at a density of 10,000 cells/well in 24-well plates. 24 h after seeding, medium containing gliotoxin was added to yield desired concentrations of gliotoxin. At time points indicated, culture medium was removed by suction. Adherent cells were washed with DPBS (Cambrex, Verviers, Belgium) and incubated with trypsin (Gibco) at 37° C. Detached cells were transferred to test tubes containing Cellpack isotonic fluid (Sysmex Europe, Bornbarch, Germany) and counted with a Coulter Z1 electronic cell counter (Beckman Coulter, Bedford, UK).

Notch2 (N2^IC) = experiment: Nuclear Notch2 activity in B-CLL cells by EMSA (band shift assay); assay type: cell-based, human; details: B-CLL cells, 0.2 μM gliotoxin, 24 h
Procedure: as §1
as §3, with “respectively. […]” for “respectively.”

Jurkat (T-ALL) = experiment: Apoptosis FACS in leukaemia cell line Jurkat; assay type: cell-based; details: 0.2 μM gliotoxin, 24 h
Procedure: FIG. 7: (A) The apoptotic activity of gliotoxin on further B-CLL patient samples (CLL4-CLL8) is illustrated. The (non-Notch2-associated) leukaemia cell lines (or the leukaemia cell lines not characterised by ligand-independent Notch2 fragments) Jurkat (T-ALL), SH1 (hairy cell carcinoma), RL-7 and K562 (CML) are resistant to a treatment with 0.2 μM (corresponding to 60 ng/ml) of gliotoxin. Cells were incubated for 24 h+/−gliotoxin, and the percentage of apoptotic cells (probidium-iodide+/annexinV+) was determined by means of FACS analysis. In none of the 4 non-Notch2-associated cell lines indicated, the application of 0.2 μM of gliotoxin led to a significant induction of apoptosis within 24 hours. The cytotoxic effect of Gliotoxin correlates with the Notch2 activity in leukemias. (B) Corresponding EMSA showing the activity of Notch2 in B-CLL cells and in leukemic cell lines (Jurkat, SH1, RL7, and K562).

[2] = tested on: U937 (macrophage cell line); details: cited from earlier work
[3] = tested on: Nec (cholangiocellular carcinoma); experiment: Cell count analysis Nec; assay type: cell-based, human; details: 200 nM gliotoxin, 72 h
Procedure: as §5, §6

[4] = tested on: Panc-1 (pancreas carcinoma); experiment: Cell count analysis Panc-1; assay type: cell-based, human
Procedure: as §5, §6

[5] = tested on: B1 B-cells (LPS responder); details: mice, single administration of 100 μg of gliotoxin; cited from earlier work
[6] = tested on: PBMCs from healthy donors; experiment: Apoptosis of control PBMCs from healthy donors by FACS; assay type: cell-based, human; details: 0.2 μM gliotoxin, 4 hours
Procedure: as §2, §4

CN1C(=O)[C@]23CC4=CC=C[C@H](O)[C@H]4N2C(=O)[C@@]1(CO)SS3 [gliotoxin, [3R-(3α,5aβ,6β,10aα)]-2,3,5a,6-tetrahydro-6-hydroxy-3-(hydroxymethyl)-2-methyl-10H-3,10a-epi-dithiopyrazino[1,2-a]indol-1,4-dion]
mean value of apoptosis (B-CLL cells; B-CLL cells cultured 24 h with 0.2 μM gliotoxin, n=10): 73% | response (B-CLL cells; B-CLL-cases, 0.2 μM (60 ng/ml)): ~100% | apoptosis (B-CLL cells; TPA-stimulated B-CLL cells): 73% | apoptosis (B-CLL cells; non-stimulated B-CLL cells): 54% | mean reduction of cell numbers compared to vehicle treated controls ([1]; SNU398, 200 nM gliotoxin, 72 h): 96% | response ([1]; SNU-398, 0.2 μM (60 ng/ml)): ~100% | transcriptional Notch2 activity (EMSA) (Notch2 (N2^IC)): dramatic loss | induction of apoptosis (probidium-iodide+/annexinV+) (Jurkat (T-ALL)): resistant | IC50 with regard to cell viability [2]: 0.014 mg/L | mean reduction of cell numbers compared to vehicle treated controls [3]: 93% | response ([4]; Panc-1, 0.2 μM (60 ng/ml)): ~100% | effect on cell count ([4]; Panc-1, 200 nM gliotoxin, 72 h): very effective | cytotoxicity in dose range experiment (cell count) ([4]; Panc-1, 25, 50, 100 and 200 nM, 24 h): clear dose dependent cytotoxicity | effect on B1 B-cells (LPS responder) [5]: complete loss of B1 B-cells | apoptosis ([6]; TPA-stimulated PBMCs): 17% | apoptosis ([6]; non-stimulated PBMCs): 20%
